Source: US20060251692A1, “Use of glycol ethers as biodispersants in heating and cooling systems” (priority 2005, published 2006)

Test system: biofilms
Test: pilot site cooling tower (building downtown Montreal) treated with biodispersant, DATS clogging monitor and direct microbiological measurements

SMILES: COC(C)COC(C)CO (stereo not drawn) [dipropylene glycol methyl ether]
- dig out of deposits covering the inside walls of the tower (300 ppm in recirculating water, no bactericide): allowed first the dig out of the deposits
- DATS clogging monitor measurements (after few days of treatment): the measurements were stabilized
- direct measurements of the microbiological activity (bacterial population vs initial state) (without any bactericide injection): downwards stabilization of the bacterial population
